One compound from patent publication US7776819B2, “Targeted drug delivery of pain and addiction therapies using opioid receptor-mediated internalization” (The Board of Trustees of the University of Illinois, priority 2005, dated 2010) can be followed below.

Where a SMILES comes first, the peptide text is derived from it.

The target in this test is T1, human mu opioid receptors (hMOR) (Homo sapiens, UniProt P35372).
T1 construct: expressed in transfected cells; host or cells: CHO cells, stably transfected (G418 selection); membrane preparation
T1 sequence (P35372 whole entry): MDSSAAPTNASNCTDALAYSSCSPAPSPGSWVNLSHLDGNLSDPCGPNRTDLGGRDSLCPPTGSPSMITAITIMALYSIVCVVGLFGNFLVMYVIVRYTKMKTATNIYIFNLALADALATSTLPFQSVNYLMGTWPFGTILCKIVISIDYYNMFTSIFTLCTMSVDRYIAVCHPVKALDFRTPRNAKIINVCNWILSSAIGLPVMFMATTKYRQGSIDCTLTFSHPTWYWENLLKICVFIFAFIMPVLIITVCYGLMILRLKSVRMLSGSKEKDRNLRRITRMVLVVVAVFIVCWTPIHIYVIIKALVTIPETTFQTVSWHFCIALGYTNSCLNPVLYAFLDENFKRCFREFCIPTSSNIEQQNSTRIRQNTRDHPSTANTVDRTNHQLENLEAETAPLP
Briefly: [3H]DAMGO displacement receptor binding assay, CHO-hMOR membranes.

Procedure: Receptor membranes were prepared from CHO cells transfected with opioid mu receptors. Binding was performed at 30° C. in 50 mM pH 7.4 tris HCl buffer for 1 h for CHO-MOR (100 μg protein/reaction, 1 nM 3H-DAMGO). Reactions were terminated by vacuum filtration through GF/B filters pretreated with 0.2% polyethylenimine. These were then washed twice with ice-cold PBS. Filter-bound radioactivity was determined by liquid scintillation counting. Nonspecific binding was determined in the presence of 20 μM DAMGO.
Briefly, membranes were prepared from CHO-hMOR cells by Polytron homogenization at setting 6 for 2 min on ice, followed by centrifugation at 20,000 g for 30 min at 4° C. Protein content was determined by the Coomassie protein assay method (Pierce Biotechnology, Rockford, Ill.) and bovine serum albumin as the standard. MOR receptor binding was conducted in triplicate with 1 nM [^3H]DAMGO in 50 mM Tris HCl buffer (pH 7.4) at 30° C. for 1 h (50 μg protein/reaction). Nonspecific binding was determined in the presence of 20 μM unlabelled DAMGO. Reactions were terminated by rapid vacuum filtration through GF/B filters presoaked with 0.2% polyethylenimine. Filter-bound radioactivity was determined by liquid scintillation counting (Beckman Coulter Inc., Fullerton, Calif.). Binding data representing the mean ±SD were analyzed using Prism program (GraphPad Software, San Diego, Calif.).

One may read the IC50 as the midpoint of a concentration-inhibition curve. On to `C[C@@H](NC(=O)[C@@H](N)Cc1ccc(O)cc1)C(=O)N[C@@H](Cc1ccccc1)C(=O)NCC(=O)N[C@@H](Cc1ccc(O)cc1)C(=O)N1CCC[C@H]1C(=O)N[C@@H](CO)C(=O)N[C@@H](CS)C(=O)O` [c-p-dermorphin] (HELM PEPTIDE1{Y.[dA].F.G.Y.P.S.C}$$$$V2.0), for which the IC50 is 25.3 nM.
